The record followed here is PubChem BioAssay AID192 (DTP/NCI, 2004).

This assay deals with BDF1 mice, B16 melanoma ip, median survival T/C. In words: NCI In Vivo Anticancer Drug Screen. Data for tumor model B16 Melanoma (intraperitoneal) in B6D2F1 (BDF1) mice. Conditions: endpoint: median survival time, higher = longer survival. The procedure, abridged:
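Mice with transplantable tumors; drug vs vehicle groups; endpoint survival or tumor size; value = T/C.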

Setting [1] is: dose: 100.0 mg/kg/injection, schedule: Q01DX009 (ip), vehicle: saline with Tween-80.
The mark [2] stands for this setting: dose: 100.0 mg/kg/injection, schedule: Q01DX009 (ip), vehicle: Klucel (hydroxypropylcellulose) (HPC).
Setting [3] is: dose: 200.0 mg/kg/injection, schedule: Q01DX009 (ip), vehicle: Klucel (hydroxypropylcellulose) (HPC).
The mark [4] stands for this setting: dose: 400.0 mg/kg/injection, schedule: Q01DX009 (ip), vehicle: Klucel (hydroxypropylcellulose) (HPC).
The mark [5] stands for this setting: dose: 1.0 mg/kg/injection, schedule: Q01DX009 (ip), vehicle: saline.
[6] abbreviates: dose: 2.0 mg/kg/injection, schedule: Q01DX009 (ip), vehicle: saline.
[7] abbreviates: dose: 4.0 mg/kg/injection, schedule: Q01DX009 (ip), vehicle: saline.
Where [8] appears, read: dose: 100.0 mg/kg/injection, schedule: Q04DX003 (ip), vehicle: saline with Tween-80.
Where [9] appears, read: dose: 200.0 mg/kg/injection, schedule: Q01DX009 (ip), vehicle: saline with Tween-80.
[10] abbreviates: dose: 50.0 mg/kg/injection, schedule: Q01DX009 (ip), vehicle: saline.
The mark [11] stands for this setting: dose: 100.0 mg/kg/injection, schedule: Q04DX003 (ip), vehicle: Klucel (hydroxypropylcellulose) (HPC).
[12] abbreviates: dose: 200.0 mg/kg/injection, schedule: Q04DX003 (ip), vehicle: Klucel (hydroxypropylcellulose) (HPC).

Several values for one entry are separate records, joined by “and”; a condition that tells them apart may be missing. Equal values may be shown once. Inconclusive results and toxic doses are left out.

Consider `CC(=O)Nc1ccc2c(Nc3ccc(NS(C)(=O)=O)cc3)c3ccccc3nc2c1`, for which the T/C by setting is: (dose: 3.8 mg/kg/injection, schedule: Q01DX009 (ip), vehicle: saline sonified) 112 % of control; (dose: 7.5 mg/kg/injection, schedule: Q01DX009 (ip), vehicle: saline sonified) 110 % of control; (dose: 15.0 mg/kg/injection, schedule: Q01DX009 (ip), vehicle: saline with Tween-80) 162 % of control; (dose: 30.0 mg/kg/injection, schedule: Q01DX009 (ip), vehicle: saline sonified) 164 % of control; (dose: 30.0 mg/kg/injection, schedule: Q01DX009 (ip), vehicle: saline with Tween-80) 185 % of control; (dose: 200.0 mg/kg/injection, schedule: Q01DX001 (ip), vehicle: saline sonified) 155 % of control. For the same compound, the T/C (dose: 400.0 mg/kg/injection, schedule: Q01DX001 (ip), vehicle: saline sonified) is 194 % of control.

With `C#CCOCC1CO1` (stereo not given), the T/C (dose: 50.0 mg/kg/injection, schedule: Q01DX009 (ip), vehicle: saline with Tween-80) was 97 % of control and the T/C under setting [1] was 91 % of control.

In the case of `COc1cc(O)c2c(c1)C(=O)c1cc3c(c(O)c1C2=O)CC(OC)C(C)(O)C3=O` (stereo not given), the T/C runs as follows: (dose: 25.0 mg/kg/injection, schedule: Q01DX009 (ip), vehicle: other) 104 % of control; (dose: 50.0 mg/kg/injection, schedule: Q01DX009 (ip), vehicle: other) 91 % of control; (dose: 100.0 mg/kg/injection, schedule: Q01DX009 (ip), vehicle: other) 91 % of control.

Take `NC(=O)C(CC(=O)OCc1ccccc1)NC(=O)OCc1ccccc1` (stereo not given): the T/C by setting is: under setting [2], 118 % of control; under setting [3], 107 % of control; under setting [4], 113 % of control.

For `CCN(CC)CC#N`, the T/C is 94 % of control under setting [5], 105 % of control under setting [6] and 104 % of control under setting [7].

Turning to `CC(=O)OCC(CCC(C)C)=C(C)C`, the T/C is, setting by setting: (dose: 25.0 mg/kg/injection, schedule: Q04DX003 (ip), vehicle: saline with Tween-80) 104 % of control; (dose: 50.0 mg/kg/injection, schedule: Q04DX003 (ip), vehicle: saline with Tween-80) 104 % of control; under setting [1], 97 % of control; under setting [8], 86 % of control and 97 % of control; under setting [9], 104 % of control.

Take `CCCCCCCC(O)CCC` (stereo not given): the T/C under setting [2] is 105 % of control, the T/C under setting [3] is 97 % of control and the T/C under setting [4] was 93 % of control.

As for `COc1cc(C[C@H]2c3cc(OC)c(OC)cc3CCN2C)c(Oc2cc3c(cc2OC)-c2c(OC)c(OC)cc4c2[C@H](C3)N(C)CC4)cc1OC`, the T/C is, setting by setting: (dose: 3.0 mg/kg/injection, schedule: Q01DX009 (ip), vehicle: saline with Tween-80) 93 % of control; (dose: 6.25 mg/kg/injection, schedule: Q01DX009 (ip), vehicle: saline with Tween-80) 92 % of control and 95 % of control; (dose: 12.5 mg/kg/injection, schedule: Q01DX009 (ip), vehicle: saline with Tween-80) 88 % of control and 97 % of control and 107 % of control; (dose: 75.0 mg/kg/injection, schedule: Q01DX009 (ip), vehicle: saline with Tween-80) 87 % of control.

For `CCCNC(C)(C)C(SSS)c1cccs1` (stereo not given), the T/C (dose: 4.68 mg/kg/injection, schedule: Q04DX003 (ip), vehicle: saline) is 97 % of control; the T/C (dose: 6.25 mg/kg/injection, schedule: Q01DX009 (ip), vehicle: alcohol) is 111 % of control; the T/C (dose: 9.37 mg/kg/injection, schedule: Q04DX003 (ip), vehicle: saline) is 106 % of control; the T/C (dose: 12.5 mg/kg/injection, schedule: Q01DX009 (ip), vehicle: alcohol) was 100 % of control; the T/C (dose: 18.75 mg/kg/injection, schedule: Q04DX003 (ip), vehicle: saline) was 107 % of control; the T/C (dose: 25.0 mg/kg/injection, schedule: Q01DX009 (ip), vehicle: alcohol) is 95 % of control. Also, the T/C (dose: 50.0 mg/kg/injection, schedule: Q01DX009 (ip), vehicle: alcohol) was 91 % of control.

As for `CCCCCCCCCCCCCCCCP(=O)(OCCOCCCCCC)OCCOCCCCCC`, the T/C runs as follows: (dose: 3.12 mg/kg/injection, schedule: Q01DX009 (ip), vehicle: saline) 103 % of control; (dose: 6.25 mg/kg/injection, schedule: Q01DX009 (ip), vehicle: saline) 116 % of control; (dose: 12.5 mg/kg/injection, schedule: Q01DX009 (ip), vehicle: saline) 109 % of control; (dose: 25.0 mg/kg/injection, schedule: Q01DX009 (ip), vehicle: saline) 102 % of control; under setting [10], 94 % of control.

For the compound `CC(=O)NSCC(NC(=O)OC(C)(C)C)C(=O)O` (stereo not given), the T/C is 100 % of control under setting [10]; 101 % of control (dose: 100.0 mg/kg/injection, schedule: Q01DX009 (ip), vehicle: saline); 96 % of control (dose: 200.0 mg/kg/injection, schedule: Q01DX009 (ip), vehicle: saline).

Regarding `COc1ccc2c(c1)CN(S(=O)(=O)c1ccc(C)cc1)CCC2O` (stereo not given), the T/C runs as follows: under setting [11], 96 % of control; under setting [12], 93 % of control; (dose: 400.0 mg/kg/injection, schedule: Q04DX003 (ip), vehicle: Klucel (hydroxypropylcellulose) (HPC)) 95 % of control.

Turning to `CC1OC(O[C@H]2/C=C/C=C/C=C/C=C/C=C/C=C/C=C/[C@H](C)[C@@H](O)[C@@H](C)[C@H](C)OC(=O)C[C@H](O)C[C@H](O)CC[C@@H](O)[C@H](O)C[C@H](O)C[C@]3(O)C[C@H](O)[C@@H](C(=O)O)[C@H](C2)O3)C(O)C(N)C1O` (stereo not given in full), the T/C runs as follows: under setting [5], 102 % of control and 124 % of control; under setting [6], 106 % of control and 113 % of control; under setting [7], 97 % of control and 116 % of control; (dose: 8.0 mg/kg/injection, schedule: Q01DX009 (ip), vehicle: saline) 92 % of control and 102 % of control; (dose: 16.0 mg/kg/injection, schedule: Q01DX009 (ip), vehicle: saline) 88 % of control and 98 % of control.

Take `Cc1ncc([N+](=O)[O-])n1CCO`: the T/C was 104 % of control (dose: 18.7 mg/kg/injection, schedule: Q01DX009 (ip), vehicle: Klucel (hydroxypropylcellulose) (HPC)); 118 % of control (dose: 37.5 mg/kg/injection, schedule: Q01DX009 (ip), vehicle: Klucel (hydroxypropylcellulose) (HPC)); 115 % of control (dose: 75.0 mg/kg/injection, schedule: Q01DX009 (ip), vehicle: Klucel (hydroxypropylcellulose) (HPC)); 102 % of control (dose: 150.0 mg/kg/injection, schedule: Q01DX009 (ip), vehicle: Klucel (hydroxypropylcellulose) (HPC)); 113 % of control (dose: 300.0 mg/kg/injection, schedule: Q01DX009 (ip), vehicle: Klucel (hydroxypropylcellulose) (HPC)); 106 % of control (dose: 600.0 mg/kg/injection, schedule: Q01DX009 (ip), vehicle: Klucel (hydroxypropylcellulose) (HPC)).

Turning to `COc1cc(/C=C(/C)[N+](=O)[O-])ccc1O`, the T/C by setting is: (dose: 50.0 mg/kg/injection, schedule: Q01DX009 (ip), vehicle: carboxymethylcellulose (CMC)) 121 % of control; (dose: 100.0 mg/kg/injection, schedule: Q01DX009 (ip), vehicle: carboxymethylcellulose (CMC)) 102 % of control.

For `COc1cc2c(cc1OC)C(CN)C2` (stereo not given), the T/C is, setting by setting: (dose: 50.0 mg/kg/injection, schedule: Q01DX009 (ip), vehicle: Klucel (hydroxypropylcellulose) (HPC)) 94 % of control; under setting [2], 97 % of control.

On to `COC(=O)CCC(=O)N1CCOCC1`, for which the T/C is, setting by setting: under setting [1], 95 % of control; under setting [8], 100 % of control; under setting [9], 93 % of control; (dose: 200.0 mg/kg/injection, schedule: Q04DX003 (ip), vehicle: saline with Tween-80) 102 % of control; (dose: 400.0 mg/kg/injection, schedule: Q01DX009 (ip), vehicle: saline with Tween-80) 97 % of control; (dose: 400.0 mg/kg/injection, schedule: Q04DX003 (ip), vehicle: saline with Tween-80) 102 % of control.

For the compound `O=S(=O)(O)c1ccc(N=Nc2ccc(O)cc2)cc1`, the T/C is, setting by setting: (dose: 50.0 mg/kg/injection, schedule: Q04DX003 (ip), vehicle: Klucel (hydroxypropylcellulose) (HPC)) 105 % of control; under setting [11], 97 % of control; under setting [12], 91 % of control.

With `COc1ccccc1NC(=O)Oc1c(C(C)C)cccc1C(C)C`, the T/C by setting is: under setting [2], 93 % of control; under setting [3], 90 % of control; under setting [4], 93 % of control.
